Measurements from PMC7031696 (Cell chemical biology, 2019).
Read-outs that look alike come from different tables or passages of the source. Values belong to the compound of their own block, whether it stands above or below them.

Legend:
[1] = system: asynchronous 3D7-A10 parasite cultures; assay: Standard 72-h exposure asexual blood stage susceptibility assay (IC50^72h); format: cell-based, Plasmodium falciparum; settings: Plasmodium falciparum, 3D7, 72 h, read-out: Overall (72hr assay) Mean IC50 (IC50^72h)
[2] = system: Plasmodium falciparum 3D7-A10 parasites; assay: Stage specificity assay (8-h exposure of synchronized stages, IC50^8h); format: cell-based; settings: for Ratio lowest IC50 8hr/IC50 72hr: 3D7-A10; for IC50: Plasmodium falciparum
[3] = system: 3D7-MR4 trophozoite parasite-infected RBCs; assay: Metabolomic profiling (hydrophilic metabolite changes, UHPLC-MS); format: cell-based, Plasmodium falciparum
[4] = 3D7, read-out: Early rings IC50 (IC50^8h), 8-h exposure 0–8 hr, bound given in μM
[5] = 3D7, read-out: Early trophozoites Mean IC50 (IC50^8h), 8-h exposure 16–24 hr, 3D7-A10, survival at 60 h
[6] = 3D7, read-out: Late rings IC50 (IC50^8h), 8-h exposure 8–16 hr, bound given in μM
[7] = 3D7, read-out: Late trophozoites Mean IC50 (IC50^8h), 8-h exposure 24–32 hr, 3D7-A10, survival at 60 h
[8] = 3D7, read-out: Schizonts Mean IC50 (IC50^8h), 8-h exposure 32–40 hr, 3D7-A10, survival at 60 h

- IC50 [1]: 405 nM
- Ratio lowest IC50 8hr/IC50 72hr [2]: 4.9
- IC50 ([2]; 3D7, 8 h, read-out: IC50^8h values at all tested stages, 8-h exposures, all asexual blood stages): > 1 µM
- IC50 [2, 4]: > 10 µM
- IC50 [2, 6]: > 10 µM
- IC50 ([2]; 3D7, read-out: Schizonts IC50 (IC50^8h), 8-h exposure 32–40 hr, bound given in μM): > 10 µM
Compound: O=CN(O)CCCP(=O)(O)O [Fosmidomycin, reference compound]
- IC50 [2, 5]: 1.98 µM
- IC50 [2, 7]: 1.99 µM
- Peak Activity (Table S1) ([2]; stage(s) with the lowest IC50^8h): Trophs

- IC50 [1]: 4.4 nM
- Ratio lowest IC50 8hr/IC50 72hr [2]: 18.0
Compound: CCOC(=O)C1=C(C)NC2=C(C(=O)CC(c3ccc(OC)c(OC)c3)C2)C1c1ccccc1Cl (stereo not drawn) [GNF-Pf-5660, reference compound]
- IC50 ([2]; 3D7, read-out: Early rings Mean IC50 (IC50^8h), 8-h exposure 0–8 hr, 3D7-A10, survival at 60 h): 0.119 µM
- IC50 [2, 5]: 0.108 µM
- IC50 ([2]; 3D7, read-out: Late rings Mean IC50 (IC50^8h), 8-h exposure 8–16 hr, 3D7-A10, survival at 60 h): 0.238 µM
- IC50 [2, 7]: 0.0793 µM
- IC50 [2, 8]: 0.29 µM
- Stage of peak activity (Figure 6) ([2]; period when the parasite was most susceptible (lowest IC50^8h)): rings and trophozoites
- peptide levels (hemoglobin catabolism signature) ([3]; 10 × IC50^72h, 2.5 hr, trophozoites): decreased peptide levels
- Log2(fold changes) 3-phosphoglycerate ([3]; metabolite 3-phosphoglycerate, log2 fold change): 0.0553
- Log2(fold changes) 4-Pyridoxic acid ([3]; metabolite 4-Pyridoxic acid, log2 fold change): 0.0311
- Log2(fold changes) 4-aminobutyrate ([3]; metabolite 4-aminobutyrate, log2 fold change): -0.1913
- Log2(fold changes) 4-phosphopantetheine ([3]; metabolite 4-phosphopantetheine, log2 fold change): -0.0588
- Log2(fold changes) 4-phosphopantothenate ([3]; metabolite 4-phosphopantothenate, log2 fold change): -0.0656
- Log2(fold changes) 5-aminopentanoic acid ([3]; metabolite 5-aminopentanoic acid, log2 fold change): 0.0000
- Log2(fold changes) 5-methyl-THF ([3]; metabolite 5-methyl-THF, log2 fold change): 0.0000
- Log2(fold changes) 5-phosphoribosyl-1-pyrophosphate ([3]; metabolite 5-phosphoribosyl-1-pyrophosphate, log2 fold change): 0.0000
- Log2(fold changes) 6-phospho-D-gluconate ([3]; metabolite 6-phospho-D-gluconate, log2 fold change): -0.0448
- Log2(fold change) HVDD ([3]; metabolite HVDD): -2.3471
- Log2(fold change) Hydroxyisocaproic acid ([3]; metabolite Hydroxyisocaproic acid): 0.0000
- Log2(fold change) IDP ([3]; metabolite IDP): 0.0000
- Log2(fold change) IMP ([3]; metabolite IMP): -0.0436
- Log2(fold change) Inositol ([3]; metabolite Inositol): 0.0000
- Log2(fold change) Isopentyl-PP ([3]; metabolite Isopentyl-PP): 0.0000
- Log2(fold change) L-arginino-succinate ([3]; metabolite L-arginino-succinate): -1.4037
- Log2(fold change) LD ([3]; metabolite LD): 0.0323
- Log2(fold change) Myristoyl/tetradecanoyl-CoA ([3]; metabolite Myristoyl/tetradecanoyl-CoA): 0.0000
- Log2(fold change) N-Acetyl-L-alanine ([3]; metabolite N-Acetyl-L-alanine): -0.5679
- Log2(fold change) N-acetyl-L-ornithine ([3]; metabolite N-acetyl-L-ornithine): -1.3851
- Log2(fold change) N-acetyl-glucosamine-1/6-phosphate ([3]; metabolite N-acetyl-glucosamine-1/6-phosphate): 0.1805
- Log2(fold change) N-acetyl-glutamate ([3]; metabolite N-acetyl-glutamate): 0.1150
- Log2(fold change) N-acetyl-glutamine ([3]; metabolite N-acetyl-glutamine): -0.5582
- Log2(fold change) N-carbamoyl-L-aspartate ([3]; metabolite N-carbamoyl-L-aspartate): -0.1586
- Log2(fold change) NAD+ ([3]; metabolite NAD+): -0.1007
- Log2(fold change) NADH ([3]; metabolite NADH): 0.4611
- Log2(fold change) NADP+ ([3]; metabolite NADP+): 0.0287
- Log2(fold change) NADPH ([3]; metabolite NADPH): 0.0479
- Log2(fold change) O-acetyl-L-serine ([3]; metabolite O-acetyl-L-serine): 0.0000
- Log2(fold change) Octoluse 8/1P ([3]; metabolite Octoluse 8/1P): -0.0806
- Log2(fold change) Octoluse Bisphosphate ([3]; metabolite Octoluse Bisphosphate): -0.3183
- Log2(fold change) PD ([3]; metabolite PD): -1.8683
- Log2(fold change) PE ([3]; metabolite PE): -1.8289
- Log2(fold change) PEE ([3]; metabolite PEE): -1.8489
- Log2(fold change) PEEK ([3]; metabolite PEEK): -2.1431
- Log2(fold change) PVNF ([3]; metabolite PVNF): -2.1997
- Log2(fold change) Pyroglutamic acid ([3]; metabolite Pyroglutamic acid): -0.1216
- Log2(fold change) Pyrophosphate ([3]; metabolite Pyrophosphate): 0.0000
- Log2(fold change) Ribose-5-phosphate ([3]; metabolite Ribose-5-phosphate): 0.0000
- Log2(fold change) S-adenosyl-L-homocysteine ([3]; metabolite S-adenosyl-L-homocysteine): -0.0693
- Log2(fold change) S-adenosyl-L-methioninamine ([3]; metabolite S-adenosyl-L-methioninamine): 0.0000
- Log2(fold change) S-adenosyl-L-methionine ([3]; metabolite S-adenosyl-L-methionine): 0.0000
- Log2(fold change) S-methyl-5'-thioadenosine ([3]; metabolite S-methyl-5'-thioadenosine): -0.0720
- Log2(fold change) SD ([3]; metabolite SD): -1.1525
- Log2(fold change) SDL ([3]; metabolite SDL): -1.7902
- Log2(fold change) SID ([3]; metabolite SID): 0.0000
- Log2(fold change) Sedoheptulose bisphosphate ([3]; metabolite Sedoheptulose bisphosphate): -0.1508
- Log2(fold change) Thiamine pyrophosphate ([3]; metabolite Thiamine pyrophosphate): 0.0000
- Log2(fold changes) UDP-D-glucose ([3]; metabolite UDP-D-glucose, log2 fold change): 0.0139
- Log2(fold changes) UDP-D-glucuronate ([3]; metabolite UDP-D-glucuronate, log2 fold change): 0.0860
- Log2(fold changes) UDP-N-acetyl-glucosamine ([3]; metabolite UDP-N-acetyl-glucosamine, log2 fold change): -0.0276
- Log2(fold changes) UDP ([3]; metabolite UDP, log2 fold change): 0.1561
- Log2(fold changes) UMP ([3]; metabolite UMP, log2 fold change): -0.3498
- Log2(fold changes) UTP ([3]; metabolite UTP, log2 fold change): 0.0000
- Log2(fold change) hydroxyphenylpyruvate ([3]; metabolite hydroxyphenylpyruvate): 0.0000
- Log2(fold change) hydroxyproline/Aminolevulinate ([3]; metabolite hydroxyproline/Aminolevulinate): 0.0000
- Log2(fold change) hypoxanthine ([3]; metabolite hypoxanthine): 0.0715
- Log2(fold change) indole ([3]; metabolite indole): -0.1422
- Log2(fold change) inosine ([3]; metabolite inosine): -0.1669
- Log2(fold change) isoleucine ([3]; metabolite isoleucine): 0.0000
- Log2(fold change) lactate ([3]; metabolite lactate): -0.0958
- Log2(fold change) leucine ([3]; metabolite leucine): 0.0000
- Log2(fold change) lysine ([3]; metabolite lysine): 0.0000
- Log2(fold change) malate ([3]; metabolite malate): -0.8784
- Log2(fold change) maleic acid ([3]; metabolite maleic acid): -0.8581
- Log2(fold change) methionine ([3]; metabolite methionine): -0.1925
- Log2(fold change) myo-inositol ([3]; metabolite myo-inositol): 0.0386
- Log2(fold change) nicotinamide mononucleotide ([3]; metabolite nicotinamide mononucleotide): -0.1106
- Log2(fold change) nicotinate ([3]; metabolite nicotinate): 0.1148
- Log2(fold change) ornithine ([3]; metabolite ornithine): -0.1689
- Log2(fold change) orotate ([3]; metabolite orotate): -0.3275
- Log2(fold change) orotidine-5'-phosphate ([3]; metabolite orotidine-5'-phosphate): -1.3140
- Log2(fold change) oxaloacetate ([3]; metabolite oxaloacetate): -0.1481
- Log2(fold change) p-aminobenzoate ([3]; metabolite p-aminobenzoate): -0.1878
- Log2(fold change) p-hydroxybenzoate ([3]; metabolite p-hydroxybenzoate): 0.0000
- Log2(fold change) pantothenate ([3]; metabolite pantothenate): -0.2858
- Log2(fold change) phenylalanine ([3]; metabolite phenylalanine): -0.3503
- Log2(fold change) phenylpyruvate ([3]; metabolite phenylpyruvate): 0.0000
- Log2(fold change) phosphoenolpyruvate ([3]; metabolite phosphoenolpyruvate): 0.2491
- Log2(fold change) prephenate ([3]; metabolite prephenate): -0.5893
- Log2(fold change) proline ([3]; metabolite proline): 0.0000
- Log2(fold change) pyridoxine ([3]; metabolite pyridoxine): -0.1054
- Log2(fold change) pyruvate ([3]; metabolite pyruvate): -0.3244
- Log2(fold change) riboflavin ([3]; metabolite riboflavin): -0.0162
- Log2(fold change) ribose ([3]; metabolite ribose): 0.0000
- Log2(fold change) ribose-phosphate ([3]; metabolite ribose-phosphate): -0.2537
- Log2(fold change) ribulose-5-phosphate ([3]; metabolite ribulose-5-phosphate): 0.0000
- Log2(fold change) serine ([3]; metabolite serine): 0.0000
- Log2(fold change) sn-glycerol-3-phosphate ([3]; metabolite sn-glycerol-3-phosphate): 0.1845
- Log2(fold change) succinate/Methylmalonic acid ([3]; metabolite succinate/Methylmalonic acid): -0.0086
- Log2(fold change) succinyl-CoA/methylmalonyl-CoA ([3]; metabolite succinyl-CoA/methylmalonyl-CoA): 0.0000
- Log2(fold change) taurine ([3]; metabolite taurine): 0.0000
- Log2(fold change) thiamine ([3]; metabolite thiamine): -0.1840
- Log2(fold change) threonine/homoserine ([3]; metabolite threonine/homoserine): 0.0000
- Log2(fold change) thymidine ([3]; metabolite thymidine): 0.0000
- Log2(fold changes) thymine ([3]; metabolite thymine, log2 fold change): 0.0000
- Log2(fold changes) trehalose-6-Phosphate ([3]; metabolite trehalose-6-Phosphate, log2 fold change): 0.0000
- Log2(fold changes) tryptophan ([3]; metabolite tryptophan, log2 fold change): -0.0821
- Log2(fold changes) tyrosine ([3]; metabolite tyrosine, log2 fold change): -0.1854
- Log2(fold changes) uridine ([3]; metabolite uridine, log2 fold change): -0.2184

- IC50 [1]: 185 nM
- Ratio lowest IC50 8hr/IC50 72hr [2]: 2.6
- IC50 [2, 4]: > 25 µM
- IC50 [2, 6]: > 25 µM
Compound: CCOC(=O)C1=C(C)N=c2s/c(=C\c3cc(Cl)ccc3O)c(=O)n2C1c1ccc(OC)cc1 (stereo not drawn) [MMV665971]
- killing in stage specificity assay ([2]; 8-h exposures, survival curves): incomplete killing at all asexual blood stages
- IC50 [2, 5]: 0.496 µM
- IC50 [2, 7]: 0.485 µM
- IC50 [2, 8]: 0.523 µM
